# Test results reported in patent US20260364215A1, “Radiopharmaceutical Compositions Targeting Ephrin Type-A Receptor 2 and Uses Thereof” (PeptiDream Inc., priority 2022, published 2026).
# Like-named read-outs stand apart in the source and are kept apart here. Numbered stars: 1 amine (or outer) side, 2 acyl side, 3 side chain; on linkers, the order of the positions; unused ones are H or OH. Bridge positions count the residues as written; N and C are the ends. Square brackets hold non-standard residues; d marks the D form. Side chains are listed from the residue outwards. Peptide text beside a SMILES is read from it. * marks the point of attachment. DOTA(Lu) = O=C1CN2CCN3CCN(CC(=O)*)CCN(CC2)CC(=O)[O][Lu]([O]1)[O]C(=O)C3; NH(1-deoxy-D-glucityl) = OC[C@@H](O)[C@@H](O)[C@H](O)[C@@H](O)CN*; DOTA = O=C(O)CN1CCN(CC(=O)O)CCN(CC(=O)*)CCN(CC(=O)O)CC1; Trp(1-Me,7-Cl) = Cn1cc(C[C@H](N)C(=O)O)c2cccc(Cl)c21; dPhe(3-CONH2) = NC(=O)c1cccc(C[C@@H](N)C(=O)O)c1; Piperazinyl(4-CH2COOH) = O=C(O)CN1CCN(*)CC1; Trp(1-Me) = Cn1cc(C[C@H](N)C(=O)O)c2ccccc21; NMemTyr = CN[C@@H](Cc1cccc(O)c1)C(=O)O; NMe3Pal = CN[C@@H](Cc1cccnc1)C(=O)O; NMeF = CN[C@@H](Cc1ccccc1)C(=O)O; Gly(cBu) = N[C@H](C(=O)O)C1CCC1; NMeE = CN[C@@H](CCC(=O)O)C(=O)O; Aad = N[C@@H](CCCC(=O)O)C(=O)O; NMeN = CN[C@@H](CC(N)=O)C(=O)O; CO = O=C([*:1])[*:2]
# Molecular target: T1, Recombinant Human EphA2 Fc Protein (Homo sapiens, UniProt P29317)
# T1 construct: purchased Elabscience
# Experiment: Interaction analysis (kinetics, KD) of peptides and conjugates against EphA2 by SPR, Biacore T200, single-cycle kinetics (Examples B15 and B22)
# Type: binding
# Procedure, shortened: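 Biacore T200 SPR with Fc-tagged human EphA2 captured via anti-human antibody; running buffer HBS-P+ pH 7.4 with 1% DMSO, 25 °C. Five serial dilutions of peptide or conjugate run by single-cycle kinetics; KD from ka and kd after baseline subtraction.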
# [1] = conjugates, Biacore T200 according to Example B15, Table B16, read-out: SPR Kd
# T1 sequence (P29317 24-534 limits assumed): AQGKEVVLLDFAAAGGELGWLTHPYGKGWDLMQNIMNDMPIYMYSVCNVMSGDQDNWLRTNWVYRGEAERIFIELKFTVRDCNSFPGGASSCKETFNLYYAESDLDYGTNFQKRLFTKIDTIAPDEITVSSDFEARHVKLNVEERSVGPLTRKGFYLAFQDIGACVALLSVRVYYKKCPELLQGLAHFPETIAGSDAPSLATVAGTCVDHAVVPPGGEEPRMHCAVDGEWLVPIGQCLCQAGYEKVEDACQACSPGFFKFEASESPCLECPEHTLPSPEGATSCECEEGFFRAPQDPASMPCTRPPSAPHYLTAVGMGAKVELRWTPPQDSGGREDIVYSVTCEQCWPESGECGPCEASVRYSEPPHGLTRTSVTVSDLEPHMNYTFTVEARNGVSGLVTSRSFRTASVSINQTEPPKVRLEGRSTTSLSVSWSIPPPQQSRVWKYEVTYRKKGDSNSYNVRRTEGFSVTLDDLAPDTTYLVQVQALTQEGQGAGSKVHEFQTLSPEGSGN
Compound,Kd [nM],Kd [1] [nM]
"CC(C)C[C@@H]1NC(=O)[C@H](CC(N)=O)NC(=O)[C@H](Cc2cccnc2)N(C)C(=O)[C@@H](C)NC(=O)CSC[C@@H](C(N)=O)NC(=O)[C@H](CCCCNC(=O)CN2CCN3CCN4CCN(CC2)CC(=O)[O][Lu]([O]C(=O)C3)[O]C(=O)C4)NC(=O)[C@H]([C@@H](C)O)NC(=O)[C@H](Cc2cn(C)c3ccccc23)NC(=O)[C@H](CCCCNC(=O)N2CCN(CC(=O)O)CC2)NC(=O)[C@H](Cc2cn(C)c3c(Cl)cccc23)NC(=O)[C@H](CCC(=O)O)N(C)C(=O)[C@H](CCCC(N)=O)NC1=O [PDC_EphA2-00026633] ({CH2CO}-[dA][NMe3Pal]NL[Aad](NH2)[NMeE][Trp(1-Me,7-Cl)]K([CO-Piperazinyl(4-CH2COOH)])[Trp(1-Me)]TK(DOTA(Lu))C-NH2; thioether N-12)",< 1,–
"CC(C)C[C@@H]1NC(=O)[C@H](CC(N)=O)NC(=O)[C@H](Cc2cccnc2)N(C)C(=O)[C@@H](Cc2cccc(C(N)=O)c2)NC(=O)CSC[C@@H](C(N)=O)NC(=O)[C@H](CCCC(N)=O)NC(=O)[C@H]([C@@H](C)O)NC(=O)[C@H](Cc2cn(C)c3ccccc23)NC(=O)[C@H](CCC(=O)NC[C@H](O)[C@@H](O)[C@H](O)[C@H](O)CO)NC(=O)[C@H](Cc2cn(C)c3c(Cl)cccc23)NC(=O)[C@H](CC(N)=O)N(C)C(=O)[C@H](CCCCNC(=O)CN2CCN3CCN4CCN(CC2)CC(=O)[O][Lu]([O]C(=O)C3)[O]C(=O)C4)NC1=O [PDC_EphA2-00026714] ({CH2CO}-[dPhe(3-CONH2)][NMe3Pal]NLK(DOTA(Lu))[NMeN][Trp(1-Me,7-Cl)]E(NH(1-deoxy-D-glucityl))[Trp(1-Me)]T[Aad](NH2)C-NH2; thioether N-12)",< 1,–
"CC(C)C[C@@H]1NC(=O)[C@H](CC(N)=O)NC(=O)[C@H](Cc2cccnc2)N(C)C(=O)[C@@H](Cc2cccc(C(N)=O)c2)NC(=O)CSC[C@@H](C(N)=O)NC(=O)[C@H](CCCC(N)=O)NC(=O)[C@H]([C@@H](C)O)NC(=O)[C@H](Cc2cn(C)c3ccccc23)NC(=O)[C@H](CCCCNC(=O)CN2CCN3CCN4CCN(CC2)CC(=O)[O][Lu]([O]C(=O)C3)[O]C(=O)C4)NC(=O)[C@H](Cc2cn(C)c3c(Cl)cccc23)NC(=O)[C@H](CC(N)=O)N(C)C(=O)[C@H](CCCC(N)=O)NC1=O [PDC_EphA2-00026715] ({CH2CO}-[dPhe(3-CONH2)][NMe3Pal]NL[Aad](NH2)[NMeN][Trp(1-Me,7-Cl)]K(DOTA(Lu))[Trp(1-Me)]T[Aad](NH2)C-NH2; thioether N-12)",< 1,–
"CC(C)C[C@@H]1NC(=O)[C@H](CC(N)=O)NC(=O)[C@H](Cc2cccnc2)N(C)C(=O)[C@@H](Cc2cccc(C(N)=O)c2)NC(=O)CSC[C@@H](C(N)=O)NC(=O)[C@H](CCCCNC(=O)CN2CCN(CC(=O)O)CCN(CC(=O)O)CCN(CC(=O)O)CC2)NC(=O)[C@H]([C@@H](C)O)NC(=O)[C@H](Cc2cn(C)c3ccccc23)NC(=O)[C@H](CCC(=O)NC[C@H](O)[C@@H](O)[C@H](O)[C@H](O)CO)NC(=O)[C@H](Cc2cn(C)c3c(Cl)cccc23)NC(=O)[C@H](CC(N)=O)N(C)C(=O)[C@H](CCCC(N)=O)NC1=O.[Lu+3] [PDC_EphA2-00026716] ({CH2CO}-[dPhe(3-CONH2)][NMe3Pal]NL[Aad](NH2)[NMeN][Trp(1-Me,7-Cl)]E(NH(1-deoxy-D-glucityl))[Trp(1-Me)]TK(DOTA)C-NH2; thioether N-12)",–,< 1
"CC(C)C[C@@H]1NC(=O)[C@H](CC(N)=O)NC(=O)[C@H](Cc2cccnc2)N(C)C(=O)[C@@H](Cc2cccc(C(N)=O)c2)NC(=O)CSC[C@@H](C(N)=O)NC(=O)[C@H](CCCC(N)=O)NC(=O)[C@H]([C@@H](C)O)NC(=O)[C@H](Cc2cn(C)c3ccccc23)NC(=O)[C@H](CCCCNC(=O)N2CCN(CC(=O)O)CC2)NC(=O)[C@H](Cc2cn(C)c3c(Cl)cccc23)NC(=O)[C@H](CCC(=O)O)N(C)C(=O)[C@H](CCCCNC(=O)CN2CCN(CC(=O)O)CCN(CC(=O)O)CCN(CC(=O)O)CC2)NC1=O.[Lu+3] [PDC_EphA2-00026717] ({CH2CO}-[dPhe(3-CONH2)][NMe3Pal]NLK(DOTA)[NMeE][Trp(1-Me,7-Cl)]K([CO-Piperazinyl(4-CH2COOH)])[Trp(1-Me)]T[Aad](NH2)C-NH2; thioether N-12)",–,< 1
"CC(C)C[C@@H]1NC(=O)[C@H](CC(N)=O)NC(=O)[C@H](Cc2cccnc2)N(C)C(=O)[C@@H](Cc2cccc(C(N)=O)c2)NC(=O)CSC[C@@H](C(N)=O)NC(=O)[C@H](CCCC(N)=O)NC(=O)[C@H]([C@@H](C)O)NC(=O)[C@H](Cc2cn(C)c3ccccc23)NC(=O)[C@H](CCCCNC(=O)CN2CCN3CCN4CCN(CC2)CC(=O)[O][Lu]([O]C(=O)C3)[O]C(=O)C4)NC(=O)[C@H](Cc2cn(C)c3c(Cl)cccc23)NC(=O)[C@H](CCC(=O)O)N(C)C(=O)[C@H](CCCC(N)=O)NC1=O [PDC_EphA2-00026718] ({CH2CO}-[dPhe(3-CONH2)][NMe3Pal]NL[Aad](NH2)[NMeE][Trp(1-Me,7-Cl)]K(DOTA(Lu))[Trp(1-Me)]T[Aad](NH2)C-NH2; thioether N-12)",< 1,–
"CC(C)C[C@@H]1NC(=O)[C@H](CC(N)=O)NC(=O)[C@H](Cc2cccnc2)N(C)C(=O)[C@@H](Cc2cccc(C(N)=O)c2)NC(=O)CSC[C@@H](C(N)=O)NC(=O)[C@H](CCCCNC(=O)CN2CCN(CC(=O)O)CCN(CC(=O)O)CCN(CC(=O)O)CC2)NC(=O)[C@H]([C@@H](C)O)NC(=O)[C@H](Cc2cn(C)c3ccccc23)NC(=O)[C@H](CCCCNC(=O)N2CCN(CC(=O)O)CC2)NC(=O)[C@H](Cc2cn(C)c3c(Cl)cccc23)NC(=O)[C@H](CCC(=O)O)N(C)C(=O)[C@H](CCCC(N)=O)NC1=O.[Lu+3] [PDC_EphA2-00026719] ({CH2CO}-[dPhe(3-CONH2)][NMe3Pal]NL[Aad](NH2)[NMeE][Trp(1-Me,7-Cl)]K([CO-Piperazinyl(4-CH2COOH)])[Trp(1-Me)]TK(DOTA)C-NH2; thioether N-12)",–,< 1
CC(C)C[C@@H]1NC(=O)[C@H](CC(N)=O)NC(=O)[C@H](Cc2cccnc2)N(C)C(=O)[C@@H](C)NC(=O)CSC[C@@H](C(=O)N[C@H](CCCCNC(=O)CN2CCN(CC(=O)O)CCN(CC(=O)O)CCN(CC(=O)O)CC2)C(N)=O)NC(=O)[C@H](CCCC(N)=O)NC(=O)[C@H]([C@@H](C)O)NC(=O)[C@H](Cc2cn(C)c3ccccc23)NC(=O)[C@H](CCCCNC(=O)N2CCN(CC(=O)O)CC2)NC(=O)[C@H](Cc2cn(C)c3ccccc23)NC(=O)[C@H](CCC(=O)O)N(C)C(=O)[C@H](CCCC(N)=O)NC1=O.[Lu+3] [PDC_EphA2-00026772] ({CH2CO}-[dA][NMe3Pal]NL[Aad](NH2)[NMeE][Trp(1-Me)]K([CO-Piperazinyl(4-CH2COOH)])[Trp(1-Me)]T[Aad](NH2)C[dK](DOTA)-NH2; thioether N-12),–,< 1
CC(C)[C@@H]1NC(=O)[C@H](Cc2cn(C)c3ccccc23)NC(=O)[C@H](CC(N)=O)N(C)C(=O)[C@H](CCCC(N)=O)NC(=O)[C@H](C2CCC2)NC(=O)[C@H](CC(N)=O)NC(=O)[C@H](Cc2ccccc2)N(C)C(=O)[C@@H](C)NC(=O)CSC[C@@H](C(=O)N[C@H](CCCCNC(=O)CN2CCN(CC(=O)O)CCN(CC(=O)O)CCN(CC(=O)O)CC2)C(=O)O)NC(=O)[C@H](CCCC(N)=O)NC(=O)[C@H]([C@@H](C)O)NC(=O)[C@H](Cc2cn(C)c3ccccc23)NC1=O.[Lu+3] [PDC_EphA2-00026773] ({CH2CO}-[dA][NMeF]N[Gly(cBu)][Aad](NH2)[NMeN][Trp(1-Me)]V[Trp(1-Me)]T[Aad](NH2)C[dK](DOTA)-OH; thioether N-12),–,< 1
"C[C@@H](O)[C@@H]1NC(=O)[C@H](Cc2cn(C)c3ccccc23)NC(=O)[C@H](CCC(=O)NC[C@H](O)[C@@H](O)[C@H](O)[C@H](O)CO)NC(=O)[C@H](Cc2cn(C)c3c(Cl)cccc23)NC(=O)[C@H](Cc2cccnc2)N(C)C(=O)[C@H](CCCC(N)=O)NC(=O)[C@H](C2CCC2)NC(=O)[C@H](CC(N)=O)NC(=O)[C@H](Cc2cccnc2)N(C)C(=O)[C@@H](Cc2cccc(C(N)=O)c2)NC(=O)CSC[C@@H](C(=O)N[C@H](CCCCNC(=O)CN2CCN(CC(=O)O)CCN(CC(=O)O)CCN(CC(=O)O)CC2)C(=O)O)NC(=O)[C@H](CCCC(N)=O)NC1=O.[Lu+3] [PDC_EphA2-00026774] ({CH2CO}-[dPhe(3-CONH2)][NMe3Pal]N[Gly(cBu)][Aad](NH2)[NMe3Pal][Trp(1-Me,7-Cl)]E(NH(1-deoxy-D-glucityl))[Trp(1-Me)]T[Aad](NH2)C[dK](DOTA)-OH; thioether N-12)",–,< 1
"C[C@@H](O)[C@@H]1NC(=O)[C@H](Cc2cn(C)c3ccccc23)NC(=O)[C@H](CCCCNC(=O)N2CCN(CC(=O)O)CC2)NC(=O)[C@H](Cc2cn(C)c3c(Cl)cccc23)NC(=O)[C@H](CCC(=O)O)N(C)C(=O)[C@H](CCCC(N)=O)NC(=O)[C@H](C2CCC2)NC(=O)[C@H](CC(N)=O)NC(=O)[C@H](Cc2cccc(O)c2)N(C)C(=O)[C@@H](Cc2cccc(C(N)=O)c2)NC(=O)CSC[C@@H](C(=O)N[C@H](CCCCNC(=O)CN2CCN3CCN4CCN(CC2)CC(=O)[O][Lu]([O]C(=O)C3)[O]C(=O)C4)C(=O)O)NC(=O)[C@H](CCCC(N)=O)NC1=O [PDC_EphA2-00026775] ({CH2CO}-[dPhe(3-CONH2)][NMemTyr]N[Gly(cBu)][Aad](NH2)[NMeE][Trp(1-Me,7-Cl)]K([CO-Piperazinyl(4-CH2COOH)])[Trp(1-Me)]T[Aad](NH2)C[dK](DOTA(Lu))-OH; thioether N-12)",< 1,–
"C[C@H]1NC(=O)CSC[C@@H](C(=O)N[C@H](CCC(=O)O)C(=O)O)NC(=O)[C@H](CCCC(N)=O)NC(=O)[C@H]([C@@H](C)O)NC(=O)[C@H](Cc2cn(C)c3ccccc23)NC(=O)[C@H](CCCCNC(=O)N2CCN(CC(=O)O)CC2)NC(=O)[C@H](Cc2cn(C)c3c(Cl)cccc23)NC(=O)[C@H](CCC(=O)O)N(C)C(=O)[C@H](CCCCNC(=O)CN2CCN(CC(=O)O)CCN(CC(=O)O)CCN(CC(=O)O)CC2)NC(=O)[C@H](C2CCC2)NC(=O)[C@H](CC(N)=O)NC(=O)[C@H](Cc2cccnc2)N(C)C1=O.[Lu+3] [PDC_EphA2-00027103] ({CH2CO}-[dA][NMe3Pal]N[Gly(cBu)]K(DOTA)[NMeE][Trp(1-Me,7-Cl)]K([CO-Piperazinyl(4-CH2COOH)])[Trp(1-Me)]T[Aad](NH2)C[dE]-OH; thioether N-12)",–,< 1
